Data: PubChem BioAssay AID743503 (Broad Institute, 2014)
Calls of active or inactive are those of the source.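 Rule for the calls: active = IC50 under 35 µM for lowering the luciferase reporter signal in dopamine receptor counterscreen cells; inactive = IC50 over 35 µM.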

tested on: HEK293 dopamine receptor CRE-luciferase, luminescence; experiment: dopamine receptor antagonists, CRE-luciferase reporter, dose response, counter-screen for LGR2 antagonist project, cell-based, HEK293, luminescence, dry powder, set 2 (AID 743503)

| SMILES | IC50 |
| --- | --- |
| C[C@H](CO)N1C[C@H](C)[C@H](CN(C)C(=O)Nc2cccc(F)c2)OCCCC[C@H](C)Oc2ccc(NC(=O)C3CCCCC3)cc2C1=O | > 35 µM (inactive) |
| C[C@H](CO)N1C[C@H](C)[C@H](CN(C)C(=O)Nc2cccc3ccccc23)OCCCC[C@H](C)Oc2ccc(NC(=O)C3CCCCC3)cc2C1=O | > 35 µM (inactive) |
| C[C@H](CO)N1C[C@H](C)[C@H](CN(C)C(=O)Nc2ccc3ccccc3c2)OCCCC[C@H](C)Oc2ccc(NC(=O)C3CCCCC3)cc2C1=O | > 35 µM (inactive) |
| C[C@H]1CCCCO[C@@H](CN(C)C(=O)Nc2cccc3ccccc23)[C@@H](C)CN([C@@H](C)CO)C(=O)c2cc(NC(=O)C3CCCCC3)ccc2O1 | > 35 µM (inactive) |
| C[C@H](CO)N1C[C@H](C)[C@H](CN(C)C(=O)Nc2ccc(F)cc2)OCCCC[C@H](C)Oc2ccc(NC(=O)C3CCCCCC3)cc2C1=O | > 35 µM (inactive) |
| C[C@H](CO)N1C[C@H](C)[C@H](CN(C)C(=O)Nc2ccc(Cl)cc2)OCCCC[C@H](C)Oc2ccc(NC(=O)C3CCCCC3)cc2C1=O | > 35 µM (inactive) |
| C[C@H](CO)N1C[C@H](C)[C@H](CN(C)C(=O)Nc2ccccc2F)OCCCC[C@H](C)Oc2ccc(NC(=O)C3CCCCC3)cc2C1=O | > 35 µM (inactive) |
| C[C@@H]1CN([C@@H](C)CO)C(=O)c2cc(NC(=O)C3CCCCC3)ccc2O[C@@H](C)CCCCO[C@H]1CN(C)C(=O)Nc1cccc2ccccc12 | > 35 µM (inactive) |
| Cc1ccc(NC(=O)N(C)C[C@@H]2OCCCC[C@H](C)Oc3ccc(NC(=O)C4CCCCC4)cc3C(=O)N([C@H](C)CO)C[C@@H]2C)cc1 | > 35 µM (inactive) |
| C[C@H](CO)N1C[C@H](C)[C@H](CN(C)C(=O)Nc2ccc(F)cc2)OCCCC[C@H](C)Oc2ccc(NC(=O)C3CCCC3)cc2C1=O | > 35 µM (inactive) |
